{
  "source": "patent US10092580B2",
  "about": "“Controlled-release otic structure modulating and innate immune system modulating compositions and methods for the treatment of otic disorders” (OTONOMY, INC., priority 2008, dated 2018)",
  "origin": "cited, not measured here",
  "key": {"[1]": {"conditions": "administered by IV"}, "V2-R": {"test_system": "V2-R", "conditions": "infusion into the scala tympani"}, "[2]": {"conditions": "minute concentrations (e.g., 0.05%)"}},
  "data": [
    {"compound": "CCN(CC)CC(=O)Nc1c(C)cccc1C", "note": "[Lidocaine]", "values": [
      {"measurement": "sufferers in whom the noise associated with tinnitus is reduced or eliminated", "setting": "[1]", "value": "60-80%"}
    ]},
    {"compound": "Cc1ccccc1C(=O)Nc1ccc(C(=O)N2CCCC(N(C)C)c3ccccc32)cc1", "note": "(stereo not drawn) [OPC-31260]", "values": [
      {"measurement": "Meniere's disease symptoms", "setting": "V2-R", "value": "marked reduction"}
    ]},
    {"compound": "[H]/N=C(\\N/C(=N/[H])NCCCCCCNC(=N)NC(=N)Nc1ccc(Cl)cc1)Nc1ccc(Cl)cc1", "note": "[chlorhexidene]", "values": [
      {"measurement": "ototoxicity", "setting": "[2]", "value": "highly ototoxic"}
    ]}
  ]
}
